Source: patent publication US8026254B2, “Therapeutic agents useful for treating pain” (Purdue Pharma, L.P., priority 2002, dated 2011)

Target: μ-opioid receptors (Homo sapiens, UniProt P35372)
Experiment: μ-opioid receptor radioligand dose-displacement binding assay ([3H]-diprenorphine)
Procedure: μ- and ORL-1-Receptor-Binding-Assay Procedures
Radioligand dose-displacement binding assays for ORL-1 and […] use 0.1 nM [^3H]-nociceptin or 0.2 nM [^3H]-diprenorphine (NEN, Boston, Mass.), respectively, with […] membrane protein/well in a final volume of […] binding buffer (10 mM MgCl2, 1 mM EDTA, 5% DMSO, 50 mM HEPES, pH 7.4). Reactions are carried out in the absence or presence of increasing concentrations of unlabled nociceptin (American Peptide Company, Sunnyvale, Calif.) or naloxone, for ORL-1 and μ, respectively. All reactions are conducted in 96-deep well polypropylene plates for 1-2 h at room temperature. Binding reactions are terminated by rapid filtration onto 96-well Unifilter GF/C filter plates (Packard, Meriden, Conn.) presoaked in 0.5% polyethylenimine using a 96-well tissue harvester (Brandel, Gaithersburg, Md.) followed performing by three filtration washes with 500 μL of ice-cold binding buffer. Filter plates are subsequently dried at 50° C. for 2-3 h. BetaScint scintillation cocktail (Wallac, Turku, Finland) is added (50 μl/well), and plates are counted using a Packard Top-Count for 1 min/well. The data are analyzed using the one-site competition curve fitting functions in GraphPad PRISM v. 3.0 (San Diego, Calif.).

μ-opioid receptors, sequence (P35372 whole entry): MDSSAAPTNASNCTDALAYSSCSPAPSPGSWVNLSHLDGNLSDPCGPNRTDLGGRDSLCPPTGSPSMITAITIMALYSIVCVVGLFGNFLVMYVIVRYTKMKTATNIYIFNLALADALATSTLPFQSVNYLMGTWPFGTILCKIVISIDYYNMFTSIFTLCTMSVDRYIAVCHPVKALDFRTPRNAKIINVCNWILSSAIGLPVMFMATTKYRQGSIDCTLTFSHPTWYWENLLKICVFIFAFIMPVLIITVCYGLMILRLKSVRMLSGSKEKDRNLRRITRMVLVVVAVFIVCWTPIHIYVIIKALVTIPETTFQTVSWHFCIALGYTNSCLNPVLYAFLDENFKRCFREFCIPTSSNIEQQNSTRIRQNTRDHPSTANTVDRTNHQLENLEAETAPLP

CN(C)C(=O)C(CCN1CCC(c2ccccc2)(c2nnn[nH]2)CC1)(c1ccccc1)c1ccccc1 [AFD] showed a Ki of 3.2 nM.
